What was measured:
ROCK2 = ROCK2 (Homo sapiens (Human), UniProt O75116); assay: ROCK assay (Caliper LABCHIP peptide phosphorylation), ROCK2; format: biochemical; conditions: 5 μM ATP, 1.5 μM peptide substrate;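 further: reaction stopped with EDTA, then phosphorylated and unphosphorylated peptide resolved by microfluidic electrophoresis, kinase inhibition computed at each compound concentration in dose-response series, DMSO under 2%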
ROCK1 = ROCK1 (Homo sapiens (Human), UniProt Q13464); assay: ROCK assay (Caliper LABCHIP peptide phosphorylation), ROCK1; format: biochemical; conditions: 5 μM ATP, 1.5 μM peptide substrate;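 further: Read-out is separation of phosphorylated from unphosphorylated peptide, with kinase activity inhibition computed at every concentration of a dose-response series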
ROCK1, sequence (Q13464 whole entry, species assumed): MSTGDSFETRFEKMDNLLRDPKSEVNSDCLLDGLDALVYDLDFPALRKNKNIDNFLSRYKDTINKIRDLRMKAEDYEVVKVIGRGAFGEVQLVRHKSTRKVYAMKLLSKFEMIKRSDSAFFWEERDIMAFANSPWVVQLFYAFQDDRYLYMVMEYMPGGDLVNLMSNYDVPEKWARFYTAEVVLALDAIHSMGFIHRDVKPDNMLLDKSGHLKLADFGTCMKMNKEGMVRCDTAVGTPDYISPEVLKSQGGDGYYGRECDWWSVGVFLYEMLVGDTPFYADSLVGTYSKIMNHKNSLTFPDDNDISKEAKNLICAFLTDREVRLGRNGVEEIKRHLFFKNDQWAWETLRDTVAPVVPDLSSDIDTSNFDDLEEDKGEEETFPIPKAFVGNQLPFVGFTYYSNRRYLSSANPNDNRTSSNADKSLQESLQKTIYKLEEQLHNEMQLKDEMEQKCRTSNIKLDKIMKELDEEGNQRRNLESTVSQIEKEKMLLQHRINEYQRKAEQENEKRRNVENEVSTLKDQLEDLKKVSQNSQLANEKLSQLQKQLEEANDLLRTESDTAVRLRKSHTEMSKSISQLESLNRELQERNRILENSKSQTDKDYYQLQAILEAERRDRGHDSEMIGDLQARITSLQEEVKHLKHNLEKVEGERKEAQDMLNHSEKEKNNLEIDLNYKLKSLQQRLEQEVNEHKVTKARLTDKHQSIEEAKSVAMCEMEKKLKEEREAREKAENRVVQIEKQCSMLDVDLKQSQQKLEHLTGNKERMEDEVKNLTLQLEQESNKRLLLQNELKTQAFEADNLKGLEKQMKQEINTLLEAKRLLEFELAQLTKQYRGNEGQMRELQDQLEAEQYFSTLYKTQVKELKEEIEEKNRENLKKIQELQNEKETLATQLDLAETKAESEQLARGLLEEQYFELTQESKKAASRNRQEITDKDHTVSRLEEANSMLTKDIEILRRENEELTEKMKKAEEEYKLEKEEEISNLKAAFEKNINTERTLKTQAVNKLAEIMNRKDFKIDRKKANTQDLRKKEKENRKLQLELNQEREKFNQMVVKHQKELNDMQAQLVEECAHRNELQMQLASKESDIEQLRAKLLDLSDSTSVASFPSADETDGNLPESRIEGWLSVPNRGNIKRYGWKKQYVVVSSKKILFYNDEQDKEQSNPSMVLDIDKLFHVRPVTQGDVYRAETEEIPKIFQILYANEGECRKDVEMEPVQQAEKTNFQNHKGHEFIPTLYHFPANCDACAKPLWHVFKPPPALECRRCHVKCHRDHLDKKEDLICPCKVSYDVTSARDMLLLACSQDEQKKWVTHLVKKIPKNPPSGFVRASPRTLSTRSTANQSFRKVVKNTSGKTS

ROCK2, sequence (O75116 whole entry, species assumed): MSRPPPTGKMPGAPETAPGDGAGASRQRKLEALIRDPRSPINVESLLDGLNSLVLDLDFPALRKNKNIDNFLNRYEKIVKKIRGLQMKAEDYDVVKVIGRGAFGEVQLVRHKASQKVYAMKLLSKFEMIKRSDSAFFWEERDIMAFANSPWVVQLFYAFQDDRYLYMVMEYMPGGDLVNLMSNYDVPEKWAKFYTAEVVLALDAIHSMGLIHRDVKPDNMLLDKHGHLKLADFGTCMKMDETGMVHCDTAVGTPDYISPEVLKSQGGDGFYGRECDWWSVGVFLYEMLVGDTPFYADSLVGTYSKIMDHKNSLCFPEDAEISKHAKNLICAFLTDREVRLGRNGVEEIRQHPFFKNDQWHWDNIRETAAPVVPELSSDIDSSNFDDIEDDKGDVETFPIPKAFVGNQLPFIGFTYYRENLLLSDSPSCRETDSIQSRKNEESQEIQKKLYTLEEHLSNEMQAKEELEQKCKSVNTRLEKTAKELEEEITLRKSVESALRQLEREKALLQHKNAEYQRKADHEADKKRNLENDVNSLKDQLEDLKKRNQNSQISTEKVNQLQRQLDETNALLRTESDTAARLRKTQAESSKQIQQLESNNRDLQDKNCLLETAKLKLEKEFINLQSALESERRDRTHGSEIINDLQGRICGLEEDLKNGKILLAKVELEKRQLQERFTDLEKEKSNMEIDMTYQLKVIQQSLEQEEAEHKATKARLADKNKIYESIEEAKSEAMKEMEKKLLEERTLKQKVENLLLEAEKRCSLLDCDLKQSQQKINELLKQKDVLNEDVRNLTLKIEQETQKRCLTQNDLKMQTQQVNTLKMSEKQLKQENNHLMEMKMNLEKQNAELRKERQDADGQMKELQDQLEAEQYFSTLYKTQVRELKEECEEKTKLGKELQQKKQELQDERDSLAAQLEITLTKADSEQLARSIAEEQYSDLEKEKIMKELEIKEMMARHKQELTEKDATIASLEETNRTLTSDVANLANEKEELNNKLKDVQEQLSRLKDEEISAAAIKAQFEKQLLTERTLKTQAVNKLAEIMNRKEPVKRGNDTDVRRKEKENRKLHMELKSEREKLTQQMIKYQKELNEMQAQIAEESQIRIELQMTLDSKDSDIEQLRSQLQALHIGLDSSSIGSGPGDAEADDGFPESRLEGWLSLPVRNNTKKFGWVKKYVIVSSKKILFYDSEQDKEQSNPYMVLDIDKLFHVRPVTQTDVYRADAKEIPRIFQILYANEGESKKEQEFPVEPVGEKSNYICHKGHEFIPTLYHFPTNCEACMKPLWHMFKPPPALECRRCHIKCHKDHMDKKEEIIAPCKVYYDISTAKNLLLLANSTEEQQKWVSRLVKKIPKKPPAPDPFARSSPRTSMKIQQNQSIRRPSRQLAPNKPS

| Compound | IC50 (ROCK2) [nM] | IC50 (ROCK1) [nM] |
| --- | --- | --- |
| COc1cc(C(=O)NCc2cccc3[nH]ncc23)ccc1-c1cn[nH]c1 [Example 86, N-(1H-indazol-4-ylmethyl)-3-methoxy-4-(1H-pyrazol-4-yl)benzamide] | 7.99 | 41.8 |
| COc1cc(C(=O)NCc2cccc(N3CCCC3)c2)ccc1-c1cn[nH]c1 [Example 87, 3-methoxy-4-(1H-pyrazol-4-yl)-N-{[3-(pyrrolidin-1-yl)phenyl]methyl} benzamide] | 130 | 724 |
| COc1cc(C(=O)NCc2c(F)ccc(F)c2Cl)ccc1-c1cn[nH]c1 [Example 88, N-[(2-chloro-3,6-difluorophenyl)methyl]-3-methoxy-4-(1H-pyrazol-4-yl)benzamide] | 3.99 | 8.46 |
| COc1cc(C(=O)NCc2c(F)cc(F)cc2F)ccc1-c1cn[nH]c1 [Example 89, 3-methoxy-4-(1H-pyrazol-4-yl)-N-[(2,4,6-trifluorophenyl)methyl] benzamide] | 11.1 | 21.9 |
| COc1cc(C(=O)NC(CCO)c2ccccc2)ccc1-c1cn[nH]c1 (centres unmarked) [Example 90, N-(3-hydroxy-1-phenylpropyl)-3-methoxy-4-(1H-pyrazol-4-yl)benzamide] | 6.4 | 12.4 |
| COc1cc(C(=O)NCc2cc(F)cc(F)c2F)ccc1-c1cn[nH]c1 [Example 91, 3-methoxy-4-(1H-pyrazol-4-yl)-N-[(2,3,5-trifluorophenyl)methyl] benzamide] | 7.66 | 38.5 |
| COc1cc(C(=O)NCc2ccc(Cl)cc2Cl)ccc1-c1cn[nH]c1 [Example 93, N-[(2,4-dichlorophenyl)methyl]-3-methoxy-4-(1H-pyrazol-4-yl)benzamide] | 27.6 | 99.3 |
| COc1cc(C(=O)NCc2cccc(NS(C)(=O)=O)c2)ccc1-c1cn[nH]c1 [Example 94, N-[(3-methanesulfon-amidophenyl)methyl]-3-methoxy-4-(1H-pyrazol-4-yl)benzamide] | 6.33 | 24.6 |
| COc1cc(C(=O)NCc2cccc(N(C)C)c2)ccc1-c1cn[nH]c1 [Example 95, N-{[3-(dimethylamino)phenyl]methyl}-3-methoxy-4-(1H-pyrazol-4-yl)benzamide] | 47.6 | 371 |
| COc1cc(CNC(=O)c2ccc(-c3cn[nH]c3)c(OC)c2)ccc1F [Example 96, N-[(4-fluoro-3-methoxyphenyl)methyl]-3-methoxy-4-(1H-pyrazol-4-yl)benzamide] | 2.41 | 26 |
| COc1cc(C(=O)NCc2c(F)ccc(F)c2F)ccc1-c1cn[nH]c1 [Example 97, 3-methoxy-4-(1H-pyrazol-4-yl)-N-[(2,3,6-trifluorophenyl)methyl] benzamide] | 2.46 | 22.9 |
| COc1cc(C(=O)NCc2c(F)cccc2F)ccc1-c1cn[nH]c1 [Example 98, N-[(2,6-difluorophenyl)methyl]-3-methoxy-4-(1H-pyrazol-4-yl)benzamide] | 2.95 | 17.8 |
| COc1cc(C(=O)NCc2ccc(Cl)cc2F)ccc1-c1cn[nH]c1 [Example 99, N-[(4-chloro-2-fluorophenyl)methyl]-3-methoxy-4-(1H-pyrazol-4-yl)benzamide] | 1.36 | 15.8 |
| COc1cc(C(=O)NCc2cccc(N(C)C(C)=O)c2)ccc1-c1cn[nH]c1 [Example 100, 3-methoxy-N-{[3-(N-methyl-acetamido)phenyl]methyl}-4-(1H-pyrazol-4-yl)benzamide] | 299 | 4080 |
| COc1cc(C(=O)NC(C)c2ccc3c(c2)OCCO3)ccc1-c1cn[nH]c1 (centres unmarked) [Example 101, N-[1-(2,3-dihydro-1,4-benzodioxin-6-yl)ethyl]-3-methoxy-4-(1H-pyrazol-4-yl)benzamide] | 189 | 742 |
| COc1cc(C(=O)NCc2ccc3[nH]c(=O)[nH]c3c2)ccc1-c1cn[nH]c1 [Example 102, 3-methoxy-N-[(2-oxo-2,3-dihydro-1H-1,3-benzodiazol-5-yl)methyl]-4-(1H-pyrazol-4-yl)benzamide] | 662 | 3770 |
| COc1cc(C(=O)NCc2ccc3sccc3c2)ccc1-c1cn[nH]c1 [Example 104, N-(1-benzothiophen-5-ylmethyl)-3-methoxy-4-(1H-pyrazol-4-yl)benzamide] | 9.44 | 24.9 |
| COc1cc(C(=O)NCc2c(F)cccc2Cl)ccc1-c1cn[nH]c1 [Example 105, N-[(2-chloro-6-fluorophenyl)methyl]-3-methoxy-4-(1H-pyrazol-4-yl)benzamide] | 3.59 | 11.7 |
| COc1cc(C(=O)N[C@H](C)c2ccc3c(c2)CCO3)ccc1-c1cn[nH]c1 [Example 106, N-[(1R)-1-(2,3-dihydro-1-benzofuran-5-yl)ethyl]-3-methoxy-4-(1H-pyrazol-4-yl)benzamide] | 27 | 50.1 |
| COC(=O)c1cccc(CNC(=O)c2ccc(-c3cn[nH]c3)c(C)c2)c1 [Example 108, methyl 3-({[3-methyl-4-(1H-pyrazol-4-yl)phenyl] formamido}methyl) benzoate] | 2.61 | 13.9 |
| COc1cccc([C@@H](C)NC(=O)c2ccc(-c3cn[nH]c3)cc2Cl)c1 [Example 109, 2-chloro-N-[(1R)-1-(3-methoxyphenyl)ethyl]-4-(1H-pyrazol-4-yl)benzamide] | 144 | 529 |
| COc1cc(C(=O)N[C@H](CO)[C@H](O)c2ccccc2)ccc1-c1cn[nH]c1 [Example 112, N-[(1R,2R)-1,3-dihydroxy-1-phenylpropan-2-yl]-3-methoxy-4-(1H-pyrazol-4-yl)benzamide] | 2.72 | 23.9 |
| COC[C@H](NC(=O)c1ccc(-c2cn[nH]c2)c(OC)c1)[C@@H](O)c1ccccc1 [Example 113, N-[(1S,2S)-1-hydroxy-3-methoxy-1-phenylpropan-2-yl]-3-methoxy-4-(1H-pyrazol-4-yl)benzamide] | 330 | 602 |
| COc1cccc(CCNC(=O)c2ccc(-c3cn[nH]c3)c(OC)c2)c1 [Example 114, 3-methoxy-N-[2-(3-methoxyphenyl)ethyl]-4-(1H-pyrazol-4-yl)benzamide] | 59.6 | 92.9 |
| COc1cc(C(=O)N[C@@H](Cc2ccccc2)C(N)=O)ccc1-c1cn[nH]c1 [Example 115, (2S)-2-{[3-methoxy-4-(1H-pyrazol-4-yl)phenyl] formamido}-3-phenyl-propanamide] | 14 | 37.4 |
| COc1cccc(C2(NC(=O)c3ccc(-c4cn[nH]c4)c(OC)c3)CC2)c1 [Example 116, 3-methoxy-N-[1-(3-methoxyphenyl)cyclopropyl]-4-(1H-pyrazol-4-yl)benzamide] | 17.9 | 55.2 |
| COc1cc(C(=O)NC[C@H](C)c2ccccc2)ccc1-c1cn[nH]c1 [Example 117, 3-methoxy-N-[(2R)-2-phenylpropyl]-4-(1H-pyrazol-4-yl)benzamide] | 30.2 | 50.5 |
| COc1cc(C(=O)NCC(C#N)c2ccccc2)ccc1-c1cn[nH]c1 (centres unmarked) [Example 118, N-(2-cyano-2-phenylethyl)-3-methoxy-4-(1H-pyrazol-4-yl)benzamide] | 27.7 | 38.7 |

— patent US9458110B2, “Phenylpyrazole derivatives as potent ROCK1 and ROCK2 inhibitors” (BRISTOL-MYERS SQUIBB COMPANY, priority 2013, dated 2016)
